For one test, the system named is EAE in Lewis rats. As to the kind of experiment: Treatment of MBP(83-99)-induced EAE in Lewis rats with peptide analogs (subcutaneous). The test is classed as in vivo, Lewis rat. The protocol: In this system, experimental allergic encephalomyelitis (EAE) was induced in twelve female Lewis rats by injection of MBP(83-99) peptide in complete Freund's adjuvant (CFA) at the base of the tail. Nine days later, rats were divided into two groups of six animals and subcutaneously injected with 13.2 mg/kg of either peptide analog or a control peptide, sperm whale myoglobin (SWM) (110-121). Animals were monitored daily for disease symptoms and scored in a blinded fashion on a nonlinear ascending scale of 0-4 with increments denoting increasing paralysis. Each individual score was averaged with group cohorts to obtain the mean clinical score.

The subject of test [1] is NBI-5788- or MBP-reactive TCL from MS patients. Briefly: Cytokine secretion (IFN-γ, IL-5) by TCL from MS patients, ELISA. The test is classed as in vivo, human. As for the experimental part: To more fully characterize the nature of the immune response generated following APL administration, proliferating NBI-5788- or MBP-reactive TCL were established from untreated or NBI-5788-treated MS patients. […] Levels of Th2 cytokine IL-5 and Th1 cytokine IFN-γ were measured in culture supernatants collected 48 hours after stimulation with the selecting antigen, either NBI-5788 or whole MBP. Cytokines produced by T cell lines were assayed by ELISA. To measure cytokine levels, a sandwich ELISA method was used as follows: Nunc Maxisorp microtiter plates (Nalge Nunc, Denmark) were coated with capture mAb (Pharmingen, San Diego, Calif.) at 2 μg/ml for IL-4, IL-10, IL-13 and IFN-γ or at 1 μg/ml for IL-5. The capture mAb was diluted with 0.1 M NaHCO3 dispensed on the plate and incubated at 4° C. overnight. Plates were then blocked for at least 30 minutes at RT with 1% BSA (Sigma, St. Louis, Mo.) for IL-4, IL-5, IL-10 and IL-13 or 1% casein (Sigma) for IFN-γ. Standards were serially diluted (1000-1 pg/ml for IL-4 and 4000-5.5 pg/ml for IL-5, IL-10, IL-13 and IFN-γ) in blocking buffer and added to the plate. Samples were diluted at least 1:2 in blocking buffer and added to the plate. The plates were incubated at room temperature for one hour. The plates were washed and the biotinylated detection mAb (Pharmingen) was added to the plates at 1 μg/ml for IL-5 and IFN-γ or 2 μg/ml for IL-4, L-10, and IL-13. The plates were incubated for 1.5 hours at RT. After washing the plates streptavidin-peroxidase (Pierce, Rockford, Ill.) was added at 1 μg/ml for IL-5, IL-10, and IL-13 or 2 μg/ml for IL-4 and IFN-γ. The plates were incubated for 20-30 minutes. After washing thoroughly, TMB (Calbiochem, San Diego, Calif.) was added and the color was allowed to develop. The reaction was stopped by 0.2N H2SO4 and absorbance at 450 nm was determined. The association between cytokine phenotype and NBI-5788 treatment was evaluated by χ^2 contingency analysis. Mean cytokine secretion levels were compared using MannWhitney U test for non-parametric data. Probability values≦0.05 were considered significant.
In general terms: In an ELISA, binding on a coated surface is turned into a signal by an enzyme label.

Test [2] has as its system T cell cultures from multiple sclerosis patients. Briefly: Th2/Th1 (IL-13/IFN-γ) activity of T cell cultures of MS patients by dose group. The test is classed as in vivo, human. The note with it: 1, 5 and 20 mg dose groups, weeks 3, 5 and 8; most prominently in the 5 and 20 mg dose groups, FIG. 34. The protocol: T cell analyses (cytokine production) were performed at Week 1 (pre-dosing), at Week 3 (=just prior to third dose), at Week 5 (1 week after last dose) and Week 8 (4 weeks after last dose). Tritiated thymidine uptake was measured using a beta scintillation counter (Topcount, Packard).
Interferon-γ(marker for Th1 activity) and IL-13 (marker for Th2 activity) were measured by Enzyme-Linked Immuno-Assay (ELISA) in T cell culture supernatants collected prior to [^3H]-thymidine incorporation (proliferation assay).
To measure IFN-γ produced by T cell cultures, a sandwich ELISA method was employed. Microtiter plates were coated with 2 μg/ml capture antibody (Pharmingen, San Diego) in 0.1 M NaHCO3 (pH=8.2) overnight at 4° C. Plates were then incubated with blocking buffer (1% solution [w/v] of casein [Sigma] in water, pH=8.2) for at least 30 minutes at room temperature to block non-specific binding sites. […] The reaction was stopped by the addition of 0.2N H2SO4 and absorbance at 450 nm was determined using a microplate spectrophotometer (Molecular Dynamics, Sunnyvale, Calif., USA). […]
To measure IL-13 produced by T cell cultures, a sandwich ELISA method was employed. […] The reaction was stopped by the addition of 0.2N H2SO4 and absorbance at 450 nm was determined using a microplate spectrophotometer (Molecular Dynamics, Sunnyvale, Calif., USA). […]

Non-standard residues stand in square brackets, D forms with d. No end group written: not given here.

The values below come from patent US6379670B1, “Methods for treatment of multiple sclerosis using peptide analogs of human myelin basic protein” (Neurocrine Biosciences, Inc., priority 1994, dated 2002).

Consider “MBP(83-99) (83E>a, 84N>K, 89F>L, and 91K>A) ([dA]KPVVHLFANIVTPRTP) [NBI-5788]”, for which, in the test on EAE in Lewis rats (13.2 mg/kg subcutaneously on day 9, FIG. 9), the “reduction of disease severity compared to the control group” value is recorded as “about 50%”. The “effect on EAE disease severity versus control peptide” value with EAE in Lewis rats (13.2 mg/kg subcutaneously on day 9, FIGS. 10 and 11) is “significantly reduced the severity and duration of the disease”. In addition, the “MBP-reactive TCL from APL-treated MS patients that secreted more IL-5 than IFN-γ” value in test [1] (13 of 23 TCL) was determined as 56%. Besides, the “APL-reactive TCL from APL-treated MS patients that secreted more IL-5 than IFN-γ” value in test [1] (19 of 32 TCL) stood at 59%. Further, the “change of mean IFN-γ secretion of MBP-reactive and APL-reactive T cell lines, APL-treated compared to non-treated MS patients” value in test [1] (FIGS. 31A and 31B) was “significant (p<0.05) decrease”. Further, in test [1] (secreting more IL-5 than IFN-γ), the “cytokine phenotype of NBI-5788-reactive TCL from APL-treated versus untreated MS patients” value was “more Th2-like”. In addition, the “change of mean IL-5 secretion of TCL, APL-treated compared to non-treated MS patients” value in test [1] (significant (p<0.05) for APL-reactive TCL, but not for MBP-reactive TCL) was “concomitant increase”. For the same substance, the “ratio of overall Th2-type to overall Th1-type activities (IL-13/IFN-γ)” value in test [2] is “clear shift to an overall Th2 activity”.
